# Like-named read-outs stand apart in the source and are kept apart here.
# Key:
# [1] = tested on: head twitch response in mice; experiment: Head twitch response (HTR); assay type: in vivo; details: for HTR Emax (95% CI): 10-min period; for Effect of antagonist pretreatment on tryptamine-induced HTR: antagonist s.c. 1 mg/kg 10 min before tryptamine i.p. 10 mg/kg
# Experimental: HTR studies were adapted from. Mice (N = 8–10 per group) were injected intraperitoneally (i.p.) with saline or the appropriate tryptamine dose (0.3, 1, 3, 10, or 30 mg/kg) and placed into the observation arena (25 × 25 × 40 cm). A camera mounted above the observation cage recorded the mice for the next 10 min after the injection. Another batch of animals (N = 8–10) received subcutaneous injections of either saline or the respective antagonist (WAY100635 1 mg/kg for 5-HT1AR or ketanserin 1 mg/kg for 5-HT2AR). After a 10-min interval, the animals were i.p. injected with the corresponding tryptamine (10 mg/kg) and placed in the observation arena. Animal behavior was recorded for the next 10 min after the last injection, as mentioned before. Video recordings were examined by two blind observers blinded to the treatments, who assessed the number of head twitches, defined as a rapid rotational jerk of the head which is not contiguous with any grooming behavior [39].
# (§1) Data were expressed as means±standard deviation (SD). Competition, release and functional assays, and substrate-induced current curves were plotted and fitted by non-linear regression to obtain the IC50, EC50, and Emax values. For behavioral studies, data were fitted by non-linear regression and pED50 and Emax values (with the corresponding 95% CI) were estimated by means of a software (GraphPad Prism 10) that further extrapolates the data. The Cheng-Prusoff equation was used to calculate Ki (affinity): Ki = […]/(1 + [radioligand-concentration/Kd]). HTR curves were fitted using a Gaussian equation as described. Data from batch release assays were statistically analyzed with a mixed-effects model, employing Šidák’s correction for multiple comparisons. Total release at each concentration and the behavioral experiments with the corresponding antagonists were statistically analyzed using one-way ANOVA, followed by Tukey’s post-hoc test. Molecular volume (van der Waals) was calculated using a grid approximation (spacing 0.75 Å). logP was calculated using Molinspiration Cheminformatics software. For in vivo studies, one-way ANOVA with Dunnet’s post-hoc test was used to compare all conditions to saline in dose-response experiments when data were normally distributed. Otherwise, a non-parametric test (Kruskall-Wallis with Dunn’s post-hoc test) was used. Alpha was set at 0.05. Outliers were excluded following ROUT’s method (Q = 0.1%). All statistical analyses and Pearson correlations were conducted using GraphPad Prism 10 software (GraphPad software, San Diego, CA, USA).
# SERT [2] = biological target: T1, SERT (Homo sapiens, UniProt P31645); experiment: Batch release of preloaded [3H]5-HT from HEK293 cells expressing SERT; assay type: cell-based; details: with or without monensin, pCA as positive control
# T1 construct: YFP (yellow-fluorescent protein); expressed in transfected cells
# T1 sequence (P31645 whole entry): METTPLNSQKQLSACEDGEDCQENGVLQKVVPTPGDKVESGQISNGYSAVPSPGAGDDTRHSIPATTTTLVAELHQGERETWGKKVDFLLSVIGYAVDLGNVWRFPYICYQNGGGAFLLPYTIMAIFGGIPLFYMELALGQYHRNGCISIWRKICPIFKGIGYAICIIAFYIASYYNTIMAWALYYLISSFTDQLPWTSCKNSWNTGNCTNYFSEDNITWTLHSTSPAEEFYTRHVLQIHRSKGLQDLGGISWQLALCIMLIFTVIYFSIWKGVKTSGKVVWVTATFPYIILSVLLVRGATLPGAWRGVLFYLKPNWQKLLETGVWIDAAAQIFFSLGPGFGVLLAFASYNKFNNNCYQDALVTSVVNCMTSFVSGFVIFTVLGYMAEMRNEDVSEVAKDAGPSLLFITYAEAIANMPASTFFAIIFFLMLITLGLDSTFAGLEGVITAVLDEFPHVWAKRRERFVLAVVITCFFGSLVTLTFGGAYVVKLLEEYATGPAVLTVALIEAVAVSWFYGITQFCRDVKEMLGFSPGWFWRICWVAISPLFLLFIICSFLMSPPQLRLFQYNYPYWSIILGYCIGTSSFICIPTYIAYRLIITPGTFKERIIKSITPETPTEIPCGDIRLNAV
# Experimental: Batch release is a functional radiometric assay to assess transporter-mediated efflux. […] Subsequently, cells were washed three times with KHB and equilibrated for 10 min in KHB or KHB+monensin (10 µM). […] 10 µM pCA and 0.05 µM paroxetine were used as positive and negative controls, respectively. Liquid scintillation cocktail was added both to the wells containing cells (200 µL) and to the transferred supernatant (100 µL). Total radioactivity determined from/in the remaining lysate of the cells plus the transferred supernatant was set as 100%, and the radioactivity determined in each fraction was expressed as a percentage thereof. Assays were performed per duplicate for five independent experiments.
# SERT [3] = biological target: T1, SERT; experiment: Radioligand binding, [3H]imipramine displacement
# Experimental: (§2) Binding assays were performed as described previously. Briefly, membrane preparations expressing h5-HT1AR, h5-HT2AR or hSERT (see Supplementary Material) were incubated with radiolabeled selective ligands 0.4 nM [^3H]8-OH-DPAT, 1 nM [^3H]ketanserin or 3 nM [^3H]imipramine, respectively. The drugs were diluted in the corresponding binding buffer and tested at increasing concentrations in duplicate. Binding reactions were performed in tubes containing the drug dilutions; 25 μl of the corresponding radioligand; and the membranes (10 μg and 5 μg/500 μL for 5-HT1AR and 5-HT2AR, respectively, and 15 μg/100 μL for hSERT), all diluted in binding buffer. […] Incubation was performed for 1 h at 27 °C for 5-HT1A/2AR and 22 °C for hSERT, according to the manufacturer’s protocol (Perkin Elmer, Inc., Waltham, MA, USA) and previous studies - saturation and kinetic experiments, respectively. The binding reactions were stopped by rapid filtration through GF/B glass microfiber filters pre-soaked with 0.5% polyethyleneimine and washing with ice-cold wash buffer. The filters were placed into vials and scintillation cocktail was added. The trapped radioactivity was quantified. Specific binding was defined as the difference between total binding (binding buffer alone) and non-specific binding. Experiments were conducted per duplicate for at least three independent experiments.
# (§3) The generation and maintenance of HEK293 cells stably expressing the yellow-fluorescent protein (YFP)-tagged version of the human isoform of SERT (hSERT) (Perkin Elmer, Waltham, MA, USA) was carried out as described previously. For uptake inhibition and batch release assays, cells were seeded onto previously poly-D-lysine (PDL)-coated 96-well plates at a density of 0.036 million cells per well [5]. For superfusion release assays, cells were seeded onto a previously coated with PDL 6 channel µ-slide at a density of 0.08 million cells per channel. Prior to patching, cells were grown in DMEM containing 10% FBS, Zeocin (150 µg/mL) and Blasticidin (6 µg/mL) for positive selection of transporter-expressing clones. The cells were seeded at a low density on PDL-coated 35 mm plates 24-48 hr prior to patching. For membrane preparation, HEK293 cells expressing hSERT transporters were harvested from 80–90% confluent dishes as described elsewhere. Protein concentration was determined using the Bio-RadProtein Reagent (Bio Rad Laboratories, Hercules, CA, USA). Membrane preparations were stored at −80°C until use. Generation and maintenance of CHO-K1 cells expressing the human isoform of 5-HT2AR (h5-HT2AR) was carried out as described in the manufacturer’s protocol (Perkin Elmer, Waltham, MA, USA). Routine DAPI-Staining assays tested negative in mycoplasma contamination.
# [4] = tested on: horizontal locomotor activity in mice; experiment: Horizontal locomotor activity (HLA); assay type: in vivo; details: i.p., 30 min; for HLA (hypolocomotion) Emax (95% CI): total traveled distance
# Experimental: The HLA test was carried out according to a previous study. The same animals (N = 8–10 per group) used for the assessment of HTR were recorded for 30 min in an observation arena, under low-light conditions with white noise. Video recordings were processed using a tracking software (Smart 3.0 Panlab, Barcelona, Spain) to measure the total traveled distance.
# as §1
# SERT [5] = biological target: T1, SERT; experiment: [3H]5-HT uptake inhibition in HEK293 cells expressing hSERT; assay type: cell-based
# Experimental: See the Supplementary Material for cell culture procedures. The medium was removed from each well and replaced with 200 μL/well of Krebs-HEPES-Buffer (KHB). The cells were pre-incubated for 5 min with different concentrations of drug in KHB at 50 μL/well. […] The incubation solution was aspirated and the cells were washed with ice-cold KHB and lysed with 1% sodium dodecyl sulfate (SDS). The lysate was collected into vials and scintillation liquid was added. The radioactivity was quantified using a beta-scintillation counter (Perkin Elmer, Waltham, MA, USA). Non-specific uptake was determined in the presence of 30 μM paroxetine. Data were expressed as percentage of control uptake (absence of tryptamine).
# as §3
# [6] = tested on: core body temperature in mice; experiment: Core body temperature measurement; assay type: in vivo
# Experimental: Rectal temperature of mice (N = 8–10 per group) was measured 60 min after i.p. injection of the corresponding compound (see previous section “Head twitch response”). This time point was chosen according to the maximal effect observed in pilot experiments. A thermocouple probe (YS451, Panlab, Barcelona, Spain) connected to a digital thermometer (TMP812RS, Panlab, Barcelona, Spain) was inserted 2 cm into the rectum and steady temperature readout was obtained after 10 s of insertion.
# as §1
# SERT [7] = biological target: T1, SERT; experiment: Whole-cell patch clamp, transporter-mediated currents in HEK293 cells; assay type: cell-based
# Excerpt: Whole-cell patch clamping was used to measure the transporter-mediated currents and performed as previously described. […] Cells were continuously superfused by a DAD-12 superfusion system and an 8-tube perfusion manifold (ALA Scientific Instruments in Farmingdale, NY, USA), which allowed to apply a physiological external solution. The pipette solution mimics the internal ionic composition of a cell. […] Passive holding currents were subtracted, and the traces were filtered using a 50-Hz digital Gaussian low-pass filter for analysis purposes. Five independent experiments were performed.
# h5-HT1AR = biological target: T2, h5-HT1AR (Homo sapiens, UniProt P08908); experiment: Radioligand binding, [3H]8-OH-DPAT displacement; details: 0.4 nM [3H]8-OH-DPAT, N ≥ 3; read-out: 5-HT1AR Ki ± SD
# T2 construct: purchased Perkin Elmer, Inc. (Waltham, MA, USA)
# T2 sequence (P08908 1-422): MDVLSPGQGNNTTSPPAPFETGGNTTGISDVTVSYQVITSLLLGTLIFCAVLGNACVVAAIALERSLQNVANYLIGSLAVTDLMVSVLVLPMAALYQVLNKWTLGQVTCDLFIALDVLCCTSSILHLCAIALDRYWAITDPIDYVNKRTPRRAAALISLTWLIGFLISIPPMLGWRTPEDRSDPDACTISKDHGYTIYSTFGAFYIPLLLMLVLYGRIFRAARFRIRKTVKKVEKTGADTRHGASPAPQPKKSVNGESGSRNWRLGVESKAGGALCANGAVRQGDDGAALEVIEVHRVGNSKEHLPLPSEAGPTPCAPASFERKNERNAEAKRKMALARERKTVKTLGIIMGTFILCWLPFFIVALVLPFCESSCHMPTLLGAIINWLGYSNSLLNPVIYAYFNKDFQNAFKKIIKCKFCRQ
# Experimental: as §2
# h5-HT2AR = biological target: T3, h5-HT2AR (Homo sapiens, UniProt P28223); assay type: binding; details: 1 nM [3H]ketanserin, N ≥ 3; read-out: 5-HT2AR Ki ± SD
# T3 construct: purchased Perkin Elmer, Inc. (Waltham, MA, USA)
# T3 sequence (P28223 whole entry): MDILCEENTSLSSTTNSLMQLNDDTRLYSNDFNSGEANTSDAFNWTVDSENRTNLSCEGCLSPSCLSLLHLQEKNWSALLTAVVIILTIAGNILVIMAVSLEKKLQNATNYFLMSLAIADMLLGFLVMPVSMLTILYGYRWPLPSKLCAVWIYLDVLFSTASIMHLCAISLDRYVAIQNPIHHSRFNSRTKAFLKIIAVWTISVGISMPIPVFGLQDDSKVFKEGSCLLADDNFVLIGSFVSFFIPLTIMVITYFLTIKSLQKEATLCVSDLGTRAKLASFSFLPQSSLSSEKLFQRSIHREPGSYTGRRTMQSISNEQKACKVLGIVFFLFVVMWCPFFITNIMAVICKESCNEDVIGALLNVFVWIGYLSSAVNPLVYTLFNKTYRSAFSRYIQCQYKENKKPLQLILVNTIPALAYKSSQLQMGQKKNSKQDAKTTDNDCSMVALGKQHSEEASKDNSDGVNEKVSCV
# Experimental: as §2
# [8] = mice, i.p., 10 min after injection
# [9] = 3 nM [3H]imipramine, N ≥ 3, read-out: SERT Ki ± SD
# [10] = read-out: 5-HT uptake inhibition IC50 ± SD, HEK293 hSERT, N ≥ 3
# [11] = mice, i.p., 60 min after injection
Compound,"HTR Emax (95% CI) ([1]; mice, i.p.)",HLA (hypolocomotion) Emax (95% CI) [4],Ki (h5-HT1AR),"HTR ED50 [1, 8]",Ki (SERT [3]; [9]),HLA (hypolocomotion) ED50 [4],IC50 (SERT [5]; [10]),"Change in body temperature ED50 [6, 11]",Ki (h5-HT2AR),Effect of antagonist pretreatment on tryptamine-induced HTR [1],also measured
"COc1ccc2[nH]cc(CCN(C)C)c2c1 [5-MeO-DMT, 5-methoxy-N,N-dimethyltryptamine]",38.1 (31.7–44.5) HTR events,41.72 (32.18–51.26) % reduction,,,,,,,,,"ED50 ([1]; Mus musculus, ip, 10 min, mice, i.p., 10 min after injection): 4.84 mg/kg; 5-HT releasing activity (SERT [2]): capable of evoking 5-HT release; Ki (SERT [3]): 14.5 µM; ED50 ([4]; Mus musculus, ip, 0.5 h, read-out: HLA (hypolocomotion) ED50): 0.976 mg/kg; IC50 (SERT [5]): 50.1 µM; ED50 ([6]; Mus musculus, ip, 1 h, mice, i.p., 60 min after injection, read-out: Change in body temperature ED50): 4.75 mg/kg; EC50 (SERT [7]): 2.6 µM; SERT-mediated inward current Emax (SERT [7]; normalized to current elicited by 5-HT 10 µM): 0.41; SERT substrate type (SERT [7]; whole-cell patch clamp): partial SERT substrates"
C=CCN(C)CCc1c[nH]c2ccc(OC)cc12 [5-MeO-MALT],27.6 (23.2–32.0) HTR events,85.40 (55.18–115.6) % reduction,0.00596 ± 0.00047 µM,0.796 mg/kg,4.01 ± 0.417 µM,7.32 mg/kg,44.1 µM,10.2 mg/kg,0.0529 ± 0.009 µM,,
COc1ccc2[nH]cc(CCNC(C)C)c2c1 [5-MeO-NIPT],7.58 (5.46–9.71) HTR events,77.64 (69.78–85.50) % reduction,0.0157 ± 0.0023 µM,4.85 mg/kg,8.59 ± 1.71 µM,1.96 mg/kg,32.1 µM,7.35 mg/kg,0.123 ± 0.038 µM,,
"COc1ccccc1N1CCN(CCN(C(=O)C2CCCCC2)c2ccccn2)CC1 [WAY100635, reference compound]",,,,,,,,,,the number of head twitches increased significantly,"Effect of antagonist pretreatment on tryptamine-induced decrease in body temperature ([6]; antagonist s.c. 1 mg/kg before tryptamine i.p. 10 mg/kg, 60 min): the decrease in body temperature was lower"
"O=C(c1ccc(F)cc1)C1CCN(CCn2c(=O)[nH]c3ccccc3c2=O)CC1 [ketanserin, reference compound]",,,,,,,,,,prevented HTR response,
